Among the test systems are HOP-92; EKVX; UACC-257; M14; SW-620; PC-3; TK-10; ACHN; UACC-62; T47D; OVCAR-3; IGROV-1; SK-MEL-2; A549; SNB-19; SR; CCRF-CEM; HCC 2998; RPMI-8226; OVCAR-8.
Holding throughout (assay): DTP human tumour cell line panel, 48 h

Counter-ions that a name gives are not always drawn.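 Following 48 hours of exposure in 96-well plates, responses at five concentrations were used to interpolate endpoints linearly. GI50 = concentration required for 50% inhibition of growth.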 Calls of active or inactive are those of the source. No stated cut-off is given here; in the data, active = GI50 up to about 1.1 µM and inactive = higher.

By GI50 is commonly meant the concentration that inhibits growth by half. Regarding `C[N+](C)(C)CC1CCCC(C[N+](C)(C)C)C1=O` (stereo not given), the GI50 in the assay with HOP-92 is 0.441 µM (active); with EKVX, 1.58 µM (inactive); in the assay on UACC-257, 0.805 µM (active); with M14 it was 0.879 µM (active); in the assay with SW-620, 0.0726 µM (active); with PC-3, 4.61 µM (inactive). For the same compound, the GI50 with TK-10 is 1.21 µM (inactive); with ACHN, 0.845 µM (active); with UACC-62, 4.66 µM (inactive); in the assay with T47D it was 1.09 µM (active); in the assay on OVCAR-3, 0.703 µM (active); with IGROV-1, 5.24 µM (inactive). The GI50 is 1.9 µM (inactive) in the assay on SK-MEL-2; 14.8 µM (inactive) with A549; 19 µM (inactive) with SNB-19; 0.158 µM (active) with SR; 0.1 µM (active) in the assay with CCRF-CEM; 0.513 µM (active) in the assay with HCC 2998. Besides, the GI50 with RPMI-8226 was 0.0579 µM (active); in the assay with OVCAR-8 it was 0.869 µM (active).

`COc1cccc(-c2nnc3c(-c4ccccc4)nc4ccccc4n23)c1`: the GI50 in the assay on HOP-92 is 28 µM (inactive); with EKVX, 55.2 µM (inactive); in the assay with UACC-257 it was 17.9 µM (inactive); with M14, 29.5 µM (inactive); in the assay on SW-620, 16.4 µM (inactive); with PC-3 it was 16.4 µM (inactive). Further, the GI50 is 36.3 µM (inactive) in the assay with TK-10; > 62.2 µM (inactive) in the assay with ACHN; 75.7 µM (inactive) in the assay with UACC-62; 4.35 µM (inactive) in the assay on T47D; 12.7 µM (inactive) in the assay on OVCAR-3; 21.6 µM (inactive) with IGROV-1. Besides, the GI50 is 10.1 µM (inactive) in the assay with SK-MEL-2; 21.2 µM (inactive) with A549; > 100 µM (inactive) in the assay on SNB-19; 3.9 µM (inactive) in the assay with SR; 11.2 µM (inactive) in the assay with CCRF-CEM; 8.49 µM (inactive) in the assay with HCC 2998. Also, the GI50 is 3.45 µM (inactive) in the assay on RPMI-8226 and 45.2 µM (inactive) with OVCAR-8.

Turning to `N/N=C1\C(OC(=O)Nc2cccc(Cl)c2)=Nc2ccccc21`, the GI50 is 6.47 µM (inactive) in the assay with HOP-92; 4.05 µM (inactive) in the assay on EKVX; 13.7 µM (inactive) in the assay on UACC-257; 7.01 µM (inactive) in the assay on M14; 9.12 µM (inactive) in the assay on SW-620; 4.98 µM (inactive) in the assay on PC-3. Besides, the GI50 with TK-10 was 12.1 µM (inactive); in the assay on ACHN it was 8 µM (inactive); with UACC-62 it was 7.78 µM (inactive); in the assay with T47D, 2.45 µM (inactive); in the assay on OVCAR-3, 2.6 µM (inactive); in the assay with IGROV-1, 8.15 µM (inactive). Further, the GI50 in the assay with SK-MEL-2 was 10.3 µM (inactive); with A549, 5.92 µM (inactive); in the assay on SNB-19, 7.13 µM (inactive); with SR it was 11.4 µM (inactive); in the assay on CCRF-CEM, 5.93 µM (inactive); in the assay on HCC 2998, 5.71 µM (inactive). Moreover, the GI50 in the assay on RPMI-8226 was 2.9 µM (inactive); with OVCAR-8, 7.31 µM (inactive).

Turning to `C[S+](C)C1(c2ccccc2)C(=O)c2ccccc2C1=O`, the GI50 in the assay on HOP-92 is > 60.8 µM (inactive); with EKVX it was 34 µM (inactive); with UACC-257, > 64.9 µM (inactive); in the assay on M14 it was > 59.6 µM (inactive); in the assay on SW-620, > 100 µM (inactive); with PC-3 it was 76.2 µM (inactive). The GI50 is > 100 µM (inactive) with TK-10; > 65.6 µM (inactive) in the assay on ACHN; > 41 µM (inactive) in the assay on UACC-62; 29.4 µM (inactive) in the assay on T47D; > 55.1 µM (inactive) in the assay on OVCAR-3; > 69.3 µM (inactive) in the assay with IGROV-1. Besides, the GI50 in the assay on SK-MEL-2 was > 43 µM (inactive); in the assay with A549 it was 36.4 µM (inactive); in the assay on SNB-19 it was 39 µM (inactive); in the assay on SR, > 72.8 µM (inactive); with CCRF-CEM, > 46.9 µM (inactive); in the assay with HCC 2998, 17.7 µM (inactive). The results for the GI50 in the assay with RPMI-8226 and in the assay with OVCAR-8 were > 62.1 µM (inactive) and > 54.7 µM (inactive), respectively.

Consider `CO[C@@H]1[C@H](OC(=O)NC(=O)CCl)CC[C@]2(CO2)[C@H]1[C@@]1(C)O[C@@H]1CC=C(C)C` [O-CHLOROACETYLCARBAMOYLFUMAGILLOL], for which the GI50 with HOP-92 is 15.6 µM (inactive); with EKVX, 14.1 µM (inactive); in the assay with UACC-257, 11 µM (inactive); with M14 it was 5.51 µM (inactive); with SW-620, 9.53 µM (inactive); in the assay with PC-3 it was 10.7 µM (inactive). Also, the GI50 is 18.3 µM (inactive) with TK-10; 14.1 µM (inactive) in the assay with ACHN; 12 µM (inactive) in the assay with UACC-62; 12.6 µM (inactive) in the assay with T47D; 3.49 µM (inactive) in the assay with OVCAR-3; 12.2 µM (inactive) in the assay with IGROV-1. Also, the GI50 is 13.6 µM (inactive) with SK-MEL-2; 7.23 µM (inactive) in the assay with A549; 12 µM (inactive) in the assay with SNB-19; 5.64 µM (inactive) in the assay on SR; 0.9 µM (active) in the assay on CCRF-CEM; 5.81 µM (inactive) in the assay on HCC 2998. In addition, the GI50 was 6.93 µM (inactive) in the assay with RPMI-8226 and 15.8 µM (inactive) in the assay with OVCAR-8.

For `CC[C@@H]1C(=O)OC[C@@H]1Cc1cncn1C` [PILOCARPINE HYDROCHLORIDE], the GI50 in the assay on HOP-92, with EKVX, with UACC-257, in the assay with M14, in the assay on SW-620 and with PC-3 was > 100 µM (inactive) in each case. The GI50 in the assay on TK-10, with ACHN, in the assay with UACC-62, in the assay on T47D, in the assay on OVCAR-3 and in the assay on IGROV-1 was > 100 µM (inactive) each time. In addition, the GI50 with SK-MEL-2, in the assay with A549, in the assay on SNB-19, in the assay with SR, in the assay on CCRF-CEM and with HCC 2998 was > 100 µM (inactive) in each case. The GI50 in the assay on RPMI-8226 and in the assay with OVCAR-8 was > 100 µM (inactive) throughout.

Source of the values: ChEMBL document CHEMBL1201862, “PubChem BioAssay data set” (2004).
